The source of these data is patent US20160051570A1, “TREATMENT OF RHEUMATOID ARTHRITIS” (Ganderland and Associates, Inc., priority 2014, published 2016).

In this assay the test system is RA. Nature of the assay: Previous drug treatment of the same RA patients (patient history). It is filed as in vivo, human. The settings on record: drug taken before the composition.
Regarding `Cc1oncc1C(=O)Nc1ccc(C(F)(F)F)cc1` [arava, leflunomide], the “effect in remission of the disease” value was “without any real effect”.

With `CN(Cc1cnc2nc(N)nc(N)c2n1)c1ccc(C(=O)N[C@@H](CCC(=O)O)C(=O)O)cc1` [methotrexate], the “effect in remission of the disease” value is reported as “without any real effect”.

Consider `C[C@]12C=CC(=O)C=C1CC[C@@H]1[C@@H]2C(=O)C[C@@]2(C)[C@H]1CC[C@]2(O)C(=O)CO` [prednisone], for which the “effect in remission of the disease” value was “without any real effect”.

Take ENBREL®: the “effect in remission of the disease” value is given as “without any real effect”.
